Measured values as given in PubChem BioAssay AID1963875 (Molecular Pharmacology Branch, DTP, NCI, 2024).

Test system: KRAS-mutant PDC complex spheroid viability
Test: Anticancer human tumor 186277-243-T-J2-PDC patient-derived colon adenocarcinoma cell line growth inhibition [KRAS2]
Conditions: for IC50: curve of first compound; for viability, T/C: stronger effect = lower value
Description: Multicellular complex tumor spheroid response to RAS pathway inhibitors in combination with a targeted agents in patient-derived cell lines with oncogenic KRAS variants from multiple cancer types
A high-throughput screen of multi-cell type tumor spheroids was designed to identify active combinations of targeted small molecules and KRAS pathway inhibitors. Complex spheroids include a stromal component modeled by human endothelial cells (HUVEC) and fibroblasts modeled by human mesenchymal stem cells (MSCs). The concentration ranges selected for each drug and investigational agent were based upon clinically achievable concentrations if the clinical Cmax of the agent was known.
Compounds. The drugs and investigational agents: BI-3406 (NSC825286), BAY-293 (NSC824723), batoprotafib (TNO155; NSC825523), sotorasib (AMG 510; NSC818433), MRTX1257 (NSC819558), elimusertib (BAY 1895344; NSC800525), molibresib (GSK525762; NSC774829), temuterkib (LY3214996; NSC803410), venetoclax (NSC766270), alisertib (NSC759677), olaparib (NSC753686), talazoparib (NSC767125), erdafitinib (NSC781556), ipatasertib (NSC767898), cabozantinib (NSC761068), nintedanib (NSC756659), abemaciclib (NSC768073), docetaxel (NSC628503), trametinib (NSC758246), and sapanisertib (NSC764658) were obtained from the National Cancer Institute (NCI) Developmental Therapeutics Program Chemical Repository. The FDA-approved anticancer drug set is available from the Developmental Therapeutics Program. […] The stock solutions were prepared in dimethyl sulfoxide (DMSO, Sigma-Aldrich, St. Louis, MO, cat. D2650) at 800-fold the tested concentration and stored at -70 degrees C prior to their use. All drugs and investigational agents were tested over a range starting from a high concentration at or near the clinical Cmax and decreasing in half-log increments. If the clinical Cmax for an agent had not been determined, the highest concentration tested was 10 microM.
Cell Culture. All cells were maintained in an incubator at 37 degrees C and 5% CO2 with 95% humidity. The PDC lines were cultured according to standard operating procedures established by the NCI PDMR (https://pdmr.cancer.gov/sops/default.htm). Briefly, all PDCs were thawed and cultured in Matrigel-coated flasks prepared with a working solution of 1X Ham's F-12 nutrient mix, without supplementation (Invitrogen, Waltham, MA, cat. 11765054), 100 U/mL penicillin-streptomycin (Invitrogen, cat. 15140122), and 2.5% Matrigel (Corning Inc., Corning, NY, cat. 354248) for the first three passages. All PDCs were cultured in complete DMEM/F-12 media containing advanced DMEM/F-12 (Invitrogen, cat. 12634028), 4.9% defined fetal bovine serum, heat inactivated (HyClone Laboratories Inc., Logan, UT, cat. SH30070.03HI), 389 ng/mL hydrocortisone (Sigma-Aldrich, cat. H4001), 9.7 ng/mL human EGF recombinant protein (Invitrogen, cat. PHG0313), 23.4 microg/mL adenine (Sigma-Aldrich, cat. A2786), 97.3 U/mL penicillin-streptomycin (Invitrogen, cat. 15140122), 1.9 mM L-glutamine (Invitrogen, cat. 25030081), and 9.7 microM Y-27632 dihydrochloride (Tocris Bioscience, Bristol, United Kingdom, cat. 1254). The PDCs were cultured in complete DMEM/F12 media without 9.7 microM Y-27632 dihydrochloride for at least two passages prior to the screen. The established cell line HOP-62 was cultured in RPMI 1640 medium, HEPES (Invitrogen, cat. 22400105) with 10% defined fetal bovine serum (HyClone Laboratories Inc., cat. SH30070.03) and 2 mM L-glutamine (Invitrogen, cat. 25030081). The pooled donor HUVEC were cultured in endothelial cell growth medium 2 (PromoCell, Heidelberg, Germany, cat. C-22011) and the hMSC were cultured in mesenchymal stem cell growth medium 2 (PromoCell, cat. C-28009). For all experiments, HUVEC and hMSC were used at passages </=5, while the malignant cell lines were used at passages </=15. […]

[1] = second compound 0.1 µM, first compound 0.01 µM
[2] = second compound 0.1 µM, first compound 0.0316 µM
[3] = second compound 0.1 µM, first compound 0.1 µM
[4] = second compound 0.1 µM, first compound 0.316 µM
[5] = second compound 0.1 µM, first compound 1 µM
[6] = second compound 0.1 µM, first compound 3.16 µM
[7] = second compound 0.316 µM, first compound 0.01 µM
[8] = second compound 0.316 µM, first compound 0.0316 µM
[9] = second compound 0.316 µM, first compound 0.1 µM
[10] = second compound 0.316 µM, first compound 0.316 µM
[11] = second compound 0.316 µM, first compound 1 µM
[12] = second compound 0.316 µM, first compound 3.16 µM
[13] = second compound 1 µM, first compound 0.0316 µM
[14] = second compound 1 µM, first compound 0.1 µM
[15] = second compound 1 µM, first compound 0.316 µM
[16] = second compound 1 µM, first compound 1 µM
[17] = second compound 1 µM, first compound 3.16 µM
[18] = second compound 3.16 µM, first compound 0.01 µM
[19] = second compound 3.16 µM, first compound 0.0316 µM
[20] = second compound 3.16 µM, first compound 0.1 µM
[21] = second compound 3.16 µM, first compound 0.316 µM
[22] = second compound 3.16 µM, first compound 1 µM
[23] = second compound 3.16 µM, first compound 3.16 µM
[24] = second compound 10 µM, first compound 0.01 µM
[25] = second compound 10 µM, first compound 0.0316 µM
[26] = second compound 10 µM, first compound 0.1 µM
[27] = second compound 10 µM, first compound 0.316 µM
[28] = second compound 10 µM, first compound 1 µM
[29] = second compound 10 µM, first compound 3.16 µM
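Wherever viability, T/C is given: viability read after seven days of compound exposure; 100% = DMSO vehicle-treated spheroids so lower means less viable.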

Compound | IC50 (second compound 0.1 µM) [nM] | IC50 (second compound 0.316 µM) [nM] | IC50 (second compound 1 µM) [nM] | IC50 (second compound 3.16 µM) [nM] | IC50 (second compound 10 µM) [nM] | viability, T/C [1] [%] | viability, T/C [2] [%] | viability, T/C [3] [%] | viability, T/C [4] [%] | viability, T/C [5] [%] | viability, T/C [6] [%] | viability, T/C [7] [%] | viability, T/C [8] [%] | viability, T/C [9] [%] | viability, T/C [10] [%] | viability, T/C [11] [%] | viability, T/C [12] [%] | viability, T/C [13] [%] | viability, T/C [14] [%] | viability, T/C [15] [%] | further results
CC1COCCN1c1cc(-c2ccnn2C)c2ccnc(-c3ccn[nH]3)c2n1 (centres undefined) + C=CC(=O)N1CCN(c2nc(=O)n(-c3c(C)ccnc3C(C)C)c3nc(-c4c(O)cccc4F)c(F)cc23)C(C)C1 | 22 | 22.6 | 17.9 | 17 | < 10 | 87.5 | 32.6 | 5.89 | 4.33 | 3.67 | 4.31 | 94.6 | 31.5 | 6.35 | 4.65 | 3.68 | 4.54 | 24.2 | 7.17 | 5.13 | viability, T/C [16]: 4.4%; viability, T/C [17]: 5.82%; viability, T/C [18]: 79.5%; viability, T/C [19]: 15.3%; viability, T/C [20]: 7.75%; viability, T/C [21]: 5.93%; viability, T/C [22]: 6.25%; viability, T/C [23]: 8.7%; viability, T/C [24]: 19.3%; viability, T/C [25]: 11.3%; viability, T/C [26]: 9.23%; viability, T/C [27]: 8.93%; viability, T/C [28]: 11.2%; viability, T/C [29]: 14.7%
CC1COCCN1c1cc(-c2ccnn2C)c2ccnc(-c3ccn[nH]3)c2n1 (centres undefined) + CNCc1ccccc1-c1csc(C(C)Nc2nc(C)nc3cc(OC)c(OC)cc23)c1 | 20 | 21.2 | 19.6 | < 10 | < 10 | 97.7 | 18.4 | 5.46 | 3.99 | 3.43 | 4.08 | 98.4 | 24.2 | 8.14 | 3.97 | 3.29 | 4.28 | 15.5 | 4.99 | 3.97 | viability, T/C (second compound 1 µM, first compound 0.01 µM): 98.9%; viability, T/C [16]: 3.82%; viability, T/C [17]: 4.51%; viability, T/C [18]: 23.7%; viability, T/C [19]: 1.99%; viability, T/C [20]: 0.3%; viability, T/C [21]: 0.17%; viability, T/C [22]: 0.22%; viability, T/C [23]: 0.31%; viability, T/C [24]: 0.13%; viability, T/C [25]: 0.1%; viability, T/C [26]: 0.09%; viability, T/C [27]: 0.09%; viability, T/C [28]: 0.1%; viability, T/C [29]: 0.15%
